Reference: paper PMC11790763, “A Peptide Motif Covering Splice Site B in Neuroligin-1 Binds to Aβ and Acts as a Neprilysin Inhibitor” (Molecular Neurobiology, 2024)
Where a SMILES comes first, the peptide text is derived from it. Bridges are numbered along the chain shown (N, C = ends). Roman numbers before positions name the chains, in order. Where no end group is shown, it is not given here.

What was measured:
[1] = biological target: T1, Aβ1-42 (Homo sapiens, UniProt P05067); experiment: Aβ1-42 aggregation assay (thioflavin T fluorescence); conditions: 75 μM Aβ1-42 + 10 μM peptide, 37 °C, 8 days, 50 mM Tris pH 7.4, ThT 5 μM, triplicates; slopes compared with Aβ alone
T1 construct: Aβ1-42, at a final concentration of 75 μM (pH 7.4); purchased Bachem AG (Bubendorf, Switzerland) or Schafer-N; host or cells: synthetic peptide
T1 sequence (P05067 672-713): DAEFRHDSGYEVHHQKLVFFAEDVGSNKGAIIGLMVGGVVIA
Method: Aβ1-42 was dissolved in sterile deionized water to a final concentration of 1 mM. Then, the peptide was subjected to a basic shock by adding 2 M NaOH to pH 12 followed by neutralization with 1 M HCl. Aβ1-42, at a final concentration of 75 μM (pH 7.4) either alone or in combination with NL1 (1 μM), neurolide (10 μM), or NLp7 (10 μM), was loaded in triplicates on 96-well plate. Immediately after mixing the samples, thioflavin T (5 μM, ThT; Sigma-Aldrich), dissolved in the aggregation buffer (50 mM Tris, pH 7.4), was added to wells and plate was incubated at 37 °C for 8 days. The formation of beta-amyloid aggregates was monitored first for 210 min and then every 24 h by recording changes in ThT fluorescence at excitation/emission (Ex/Em) = 440/482 nm.

[2] = biological target: T2, brain-derived NEP (Mus musculus, UniProt Q61391); experiment: Neprilysin activity in NEP-enriched brain membrane fraction of WT mice; format: biochemical, mouse (C57Bl/6j); conditions: 40 μg protein, Thiorphan 100 nM
T2 construct: Clear supernatants were used as membrane-extracted fractions; from tissue; host or cells: adult mouse brain without cerebellum, Triton X-100-extracted membrane fraction
T2 sequence (Q61391 1-750): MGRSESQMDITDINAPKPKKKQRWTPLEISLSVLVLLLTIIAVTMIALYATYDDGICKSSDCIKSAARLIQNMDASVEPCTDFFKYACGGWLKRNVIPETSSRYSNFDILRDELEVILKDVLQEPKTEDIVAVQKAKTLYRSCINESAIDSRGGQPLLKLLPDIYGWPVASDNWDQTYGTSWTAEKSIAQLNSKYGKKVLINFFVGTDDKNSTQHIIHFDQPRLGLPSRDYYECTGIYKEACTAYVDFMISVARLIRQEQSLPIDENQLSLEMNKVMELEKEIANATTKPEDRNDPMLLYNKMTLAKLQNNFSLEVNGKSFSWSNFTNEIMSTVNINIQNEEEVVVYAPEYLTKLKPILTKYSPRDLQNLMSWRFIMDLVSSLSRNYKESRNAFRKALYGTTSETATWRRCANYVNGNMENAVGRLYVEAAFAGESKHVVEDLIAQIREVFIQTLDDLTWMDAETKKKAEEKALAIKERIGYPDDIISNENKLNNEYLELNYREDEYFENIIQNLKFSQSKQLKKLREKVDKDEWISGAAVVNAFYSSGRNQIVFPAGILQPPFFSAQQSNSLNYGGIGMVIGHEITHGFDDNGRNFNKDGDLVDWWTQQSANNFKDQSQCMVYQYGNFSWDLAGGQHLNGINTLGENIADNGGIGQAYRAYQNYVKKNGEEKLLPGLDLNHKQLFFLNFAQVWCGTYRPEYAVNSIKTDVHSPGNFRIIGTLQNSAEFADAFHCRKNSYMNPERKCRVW
Method: To measure NEP activity in brain tissue, whole brains without cerebellum were dissected from adult mice (C57Bl/6j or 5XFAD) and homogenized with a Teflon-glass homogenizer in five volumes (w/v) of ice-cold lysis buffer containing PBS (pH 7.4), 0.25 M sucrose and protease inhibitor cocktail (Complete™, EDTA-free, Roche Diagnostics, Indianapolis, IN). The homogenates were centrifuged at 9000 × g for 15 min at 4 °C. The supernatants were further centrifuged at 20,000 × g at 4 °C for 20 min. The resulting pellets were solubilized in resuspension buffer containing PBS (pH 7.4) and 1% Triton X-100 for 1 h on ice and again centrifuged at 20,000 × g at 4 °C for 20 min. Clear supernatants were used as membrane-extracted fractions. Protein concentrations of Triton-extracted membrane fractions were determined using the Pierce BCA Protein Assay kit (Thermo Fisher Scientific). The standard assay mixture consisted of membrane fraction containing 40 μg total protein diluted in 40 μl of dilution buffer, 10 μl of testing compound (NL1, neurolide or vehicle), and 50 μl of NEP substrate (5-FAM/QXL; Anaspec) in a total volume of 100 μl. The reaction was initiated by adding substrate to the assay mixture. […] Positive and negative controls were set up according to the manufacturer’s protocol (Anaspec). Fluorescence was measured at Ex/Em = 485/535 nm every 20 min for 2 h. The data were expressed as percentage of relative activity of neprilysin.

[3] = biological target: T3, Aβ1-40 (Homo sapiens, UniProt P05067); experiment: Competitive ELISA, binding to biotinylated Aβ1-40; conditions: Table 1, title prints Aβ1-42, text and method Aβ1-40, IC50 interpreted as KD
T3 construct: biotinylated Aβ1-40, at final concentration 400 nM; purchased Bachem AG (Bubendorf, Switzerland) or Schafer-N; host or cells: synthetic peptide
T3 sequence (P05067 672-711): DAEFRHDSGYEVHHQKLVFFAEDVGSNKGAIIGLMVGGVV
Method: NL1 and NL1-derived peptide binding to Aβ was measured by competitive ELISA using the shorter Aβ1-40 peptide with a slower polymerization constant, optimized for this binding assay. Recombinant NL1 (3.125 nM) was immobilized on a poly-sorb 96-well plate (NUNC, Roskilde, Denmark) using sodium bicarbonate buffer (pH 9.6), and left overnight at 4 °C, followed by washing with PBST buffer (PBS supplemented with 0.1% [vol/vol] Tween-20, pH 7.4). In separate tubes, biotinylated Aβ1-40, at final concentration 400 nM, was premixed with serially diluted NL1 or NL1-derived peptides for 30 min. A reversed version of Aβ (Aβ40-1) was used as the respective negative control (Supplementary Fig. 1). After preincubation, the samples were centrifuged at 20,000 × g for 10 min at 4 °C and 100 μl of the mixtures were transferred in triplicates onto the precoated ELISA plate. Plates were incubated at room temperature for 4 h, followed by washing and incubation with streptavidin-HRP conjugate (1:1000, 1 h; Dako, Glostrup, Denmark). The signal was developed with TMB ONE (KEM-EN-TEC, Denmark), and the reaction was terminated with 0.2 M H2SO4. Absorbance was measured at 450 nm on a Wallac VICTOR2 1420 Multilabel Counter (PerkinElmer, Hvidovre, Denmark). KD values were derived by sigmoidal dose–response (variable slope) fit of NL1 and neurolide dose–response curves after log transformation according to GraphPad Prism (version 6, GraphPad, San Diego, CA, USA). Obtained inhibitory concentration IC50 value was interpreted as KD value.

[4] = biological target: T4, recombinant neprilysin (NEP) (Homo sapiens, UniProt P08473); experiment: Neprilysin activity assay with recombinant enzyme (SensoLyte 520); format: biochemical; conditions: peptide 5 μM, equimolar to neurolide; 5-FAM/QXL substrate, 2 h; four to five independent experiments
T4 construct: purchased Anaspec, Fremont, California, USA (SensoLyte 520 Neprilysin Activity Assay Kit)
T4 sequence (P08473 whole entry): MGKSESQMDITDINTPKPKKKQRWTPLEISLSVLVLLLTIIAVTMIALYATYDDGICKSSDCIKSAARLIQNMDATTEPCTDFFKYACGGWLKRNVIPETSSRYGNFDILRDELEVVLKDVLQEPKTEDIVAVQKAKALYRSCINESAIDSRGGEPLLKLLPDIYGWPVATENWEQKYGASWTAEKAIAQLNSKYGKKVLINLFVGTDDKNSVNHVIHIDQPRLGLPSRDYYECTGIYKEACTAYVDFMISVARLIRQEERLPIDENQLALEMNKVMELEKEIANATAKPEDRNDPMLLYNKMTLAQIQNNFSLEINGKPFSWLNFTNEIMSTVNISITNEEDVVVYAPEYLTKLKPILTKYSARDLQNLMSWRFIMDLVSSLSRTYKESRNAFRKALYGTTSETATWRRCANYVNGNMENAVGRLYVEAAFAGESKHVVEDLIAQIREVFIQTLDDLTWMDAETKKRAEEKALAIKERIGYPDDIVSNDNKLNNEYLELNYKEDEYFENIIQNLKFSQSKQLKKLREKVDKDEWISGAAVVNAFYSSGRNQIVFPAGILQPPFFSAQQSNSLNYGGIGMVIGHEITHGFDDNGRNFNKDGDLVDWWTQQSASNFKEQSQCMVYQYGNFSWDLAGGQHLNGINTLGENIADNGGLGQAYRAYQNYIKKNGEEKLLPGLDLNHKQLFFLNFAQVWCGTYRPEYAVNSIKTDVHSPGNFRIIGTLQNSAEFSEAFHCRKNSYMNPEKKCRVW
Method: NEP activity was measured using the SensoLyte 520 Neprilysin Activity Assay Kit *Fluorimetric* (Anaspec, Fremont, California, USA) following the protocol provided by the manufacturer. Briefly, Aβ1-42 was dissolved in anhydrous DMSO to a stock concentration of 5 mM, followed by dilutions in assay buffer (100 μM, 50 μM, and 5 μM). Both NL1 (3 μM, 1 μM, 0.3 μM, 0.1 μM) and neurolide (100, 10, 5, and 1 μM) were dissolved in assay buffer. Randomly selected two additional NL1-derived peptides, NLp4, and NLp7 (5 μM, Table 1), were included in the analysis. The NEP solution (40 μl) was mixed with 10 μl of either NL1 or peptides and supplemented with 50 μl of NEP substrate (5-FAM/QXL), and the final mixture was incubated in black optical-bottom 96-well plate (Nunc, Rochester, New York, USA). In co-stimulation experiments, Aβ1-42, prepared as described above, was added to the solution in final concentrations either 0.5 μM or 5 μM. The fluorescence signal was recorded at Ex/Em = 485/535 nm every 20 min for 2 h. The data are presented as the relative activity of NEP alone.

[5] = biological target: Recombinant rat neuroligin-1 (NL1), soluble extracellular domain (rat) (UniProt Q62765); experiment: SPR; Biacore 2000; about 2000 RU of NL1 immobilised on a CM4 chip by amine coupling; 25 °C; HBS-P (10 mM HEPES pH 7.4, 150 mM NaCl, 0.005% P20) with 3 mM CaCl2; 20 μl/min; 1:1 Langmuir model; apparent KD = kd/ka
[6] = biological target: Biotinylated amyloid-β peptide 1-40 (Aβ1-40); experiment: ELISA; competitive ELISA: NL1 (3.125 nM) coated on the plate; biotinylated Aβ1-40 (400 nM; Aβ40-1 as negative control) premixed 30 min with serially diluted NL1 or NL1-derived peptides; 4 h at room temperature; streptavidin-HRP; IC50 interpreted as KD

Molecule: CC[C@H](C)[C@H](N)C(=O)N[C@H](C(=O)N[C@H](C(=O)N[C@@H](CC(N)=O)C(=O)N[C@@H](Cc1ccc(O)cc1)C(=O)N[C@@H](CCCNC(=N)N)C(=O)N[C@@H](CC(C)C)C(=O)NCC(=O)NCCCC[C@H](NC(=O)CNC(=O)[C@H](CC(C)C)NC(=O)[C@H](CCCNC(=N)N)NC(=O)[C@H](Cc1ccc(O)cc1)NC(=O)[C@H](CC(N)=O)NC(=O)[C@@H](NC(=O)[C@@H](NC(=O)[C@@H](N)[C@@H](C)CC)[C@@H](C)O)C(C)C)C(=O)NCCCC[C@H](NC(=O)[C@H](CCCCNC(=O)CNC(=O)[C@H](CC(C)C)NC(=O)[C@H](CCCNC(=N)N)NC(=O)[C@H](Cc1ccc(O)cc1)NC(=O)[C@H](CC(N)=O)NC(=O)[C@@H](NC(=O)[C@@H](NC(=O)[C@@H](N)[C@@H](C)CC)[C@@H](C)O)C(C)C)NC(=O)CNC(=O)[C@H](CC(C)C)NC(=O)[C@H](CCCNC(=N)N)NC(=O)[C@H](Cc1ccc(O)cc1)NC(=O)[C@H](CC(N)=O)NC(=O)[C@@H](NC(=O)[C@@H](NC(=O)[C@@H](N)[C@@H](C)CC)[C@@H](C)O)C(C)C)C(N)=O)C(C)C)[C@@H](C)O [NLp2] (I: H-ITVNYRLGKK-NH2 / II: H-ITVNYRLGK / III: H-ITVNYRLG / IV: H-ITVNYRLG; amide I:9-IV:C, I:10-II:C, II:9-III:C; N-terminus and C-terminus assumed)
- development of ThT fluorescence (Aβ aggregation) [1]: had no effect

Molecule: O=C(O)CNC(=O)C(CS)Cc1ccccc1 (stereo not shown) [Thiorphan, reference compound]
- activity of brain-derived NEP [2]: completely blocked

Molecule: AENIVDSDDG [NLp4, NL1-derived peptide …]
- KD (binding affinities to Aβ1-42, as in the table title) [3]: No binding
- activity of recombinant NEP [4]: had no effect

Molecule: AHTKPNRFEA [NLp6, NL1-derived peptide …]
- KD (binding affinities to Aβ1-42, as in the table title) [3]: No binding

Molecule: ASDFDFAVSN [NLp5, NL1-derived peptide …]
- KD (binding affinities to Aβ1-42, as in the table title) [3]: No binding

Molecule: ASFQPAKYA [NLp3, NL1-derived peptide …]
- KD (binding affinities to Aβ1-42, as in the table title) [3]: No binding

Molecule: ATADLHSNFGS [NLp8, NL1-derived peptide …]
- KD (binding affinities to Aβ1-42, as in the table title) [3]: No binding

Molecule: Amyloid-β peptide 1-42 (Aβ1-42)
- Kd [5]: 72 nM

Molecule: Recombinant rat neurexin-1β (NX1β) (from UniProt Q63373 47-391) (natural protein)
- Kd [5]: 6.64 nM

Molecule: SGGPKPVMYIHG [NLp1, NL1-derived peptide …]
- KD (binding affinities to Aβ1-42, as in the table title) [3]: No binding

Molecule: SVPVTSAFPTAKQDDA [NLp7, NL1-derived peptide …]
- KD (binding affinities to Aβ1-42, as in the table title) [3]: No binding
- development of ThT fluorescence (Aβ aggregation) [1]: had no effect
- activity of recombinant NEP [4]: had no effect

B1: Neurolide, NL1-derived synthetic peptide (tetramer on a lysine backbone) (peptide)
peptide: SEGNRWSNSTKGLFQRA
modifications: also: tetramer: four copies coupled to a lysine backbone
- Kd [6]: 35.3 nM

B2: NLp2, NL1-derived synthetic peptide (tetramer on a lysine backbone) (peptide)
peptide: ITVNYRLG
modifications: also: tetramer: four copies coupled to a lysine backbone
- Kd [6]: 676 nM
